Values of other authors as cited in patent US10653742B2, “Anti-inflammatory use of liquid phytocomplexes from olive” (FATTORIA LA VIALLA DI GIANNI, ANTONIO E BANDINO LO …, priority 2013, dated 2020).

Conditions: also in high concentrations

OCCc1ccc(O)c(O)c1 [Hydroxytyrosol]
toxic effect on in vivo administration: no toxic effect
